Experimental data taken from paper PMC7898037, “Improving mitochondria and ER stability helps eliminate upper motor neuron degeneration that occurs due to mSOD1 toxicity and TDP‐43 pathology” (Clinical and Translational Medicine, 2021).
Where “and” joins values, the source holds several entries; their conditions need not be identical. Identical values can stand only once.

Legend:
Weight of the mice = type: in vivo; design: Mean Diff. of weight, vehicle vs. NU-9: unit not given here; settings: for Mean weight (Mean 2): hSOD1G93A-UeGFP mice, in g (unit assumed); for Weight, Average: hSOD1G93A-UeGFP
Experimental: hSOD1^G93A‐UeGFP, prpTDP‐43^A315T‐UeGFP and WT‐UeGFP mice were weighed and the required NU‐9 dose per weight was calculated (20 or 100 mg/kg), which was administered once daily by oral gavage, starting at postnatal day (P)60 and continuing until P120. Animals from the untreated group received the vehicle (NMP and olive oil) only. For oral administration purposes, 20 ga × 38 mm plastic feeding tubes were used (Instech Laboratories, Inc). The gavage tip was inserted into the mouth directly over the tongue and into the pharynx. While observing the swallowing reflex, the tip was safely and smoothly slid into the esophagus. Once the administration was completed, the gavage tip was pulled straight out.
Behavior data were collected from hSOD1^G93A‐UeGFP and WT‐UeGFP mice (starting at P60 and every 7 days until P116) and from prpTDP‐43^A315T‐UeGFP mice (at P60, P90, and P120) with the following number of mice for each group: WT‐UeGFP vehicle (n = 10), hSOD1^G93A‐UeGFP vehicle (n = 6), WT‐UeGFP 20 mg/kg/day NU‐9 (n = 5), hSOD1^G93A‐UeGFP 20 mg/kg/day NU‐9 (n = 7), WT‐UeGFP 100 mg/kg/day NU‐9 (n = 11), hSOD1^G93A‐UeGFP 100 mg/kg/day NU‐9 (n = 9), prpTDP‐43^A315T‐UeGFP untreated (n ≥ 3), and prpTDP‐43^A315T‐UeGFP 100 mg/kg/day NU‐9 (n = 4) (Table S3).

cytochrome P450s = settings: cited from earlier work
[1] = cited from earlier work
mice = settings: cited from earlier work

C[C@H](Oc1cc(C(F)(F)F)cc(C(F)(F)F)c1)C1CC(=O)CC(=O)C1 [NU‐9]
Mean Diff. of weight, vehicle vs. NU-9 (Weight of the mice; hSOD1G93A-UeGFP (vehicle) vs. hSOD1G93A-UeGFP (NU-9 20 mg/kg/day), P88, Tukey's multiple comparisons test): 0.2857
Mean Diff. of weight, vehicle vs. NU-9 (Weight of the mice; hSOD1G93A-UeGFP (vehicle) vs. hSOD1G93A-UeGFP (NU-9 20 mg/kg/day), P95, Tukey's multiple comparisons test): 0.7619
Mean Diff. of weight, vehicle vs. NU-9 (Weight of the mice; hSOD1G93A-UeGFP (vehicle) vs. hSOD1G93A-UeGFP (NU-9 20 mg/kg/day), P102, Tukey's multiple comparisons test): 0.5714
Mean Diff. of weight, vehicle vs. NU-9 (Weight of the mice; hSOD1G93A-UeGFP (vehicle) vs. hSOD1G93A-UeGFP (NU-9 20 mg/kg/day), P109, Tukey's multiple comparisons test): 0.4762
Mean Diff. of weight, vehicle vs. NU-9 (Weight of the mice; hSOD1G93A-UeGFP (vehicle) vs. hSOD1G93A-UeGFP (NU-9 20 mg/kg/day), P116, Tukey's multiple comparisons test): -0.1429
Mean Diff. of weight, vehicle vs. NU-9 (Weight of the mice; hSOD1G93A-UeGFP (vehicle) vs. hSOD1G93A-UeGFP (NU-9 100 mg/kg/day), P60, Tukey's multiple comparisons test): 1.222
Mean Diff. of weight, vehicle vs. NU-9 (Weight of the mice; hSOD1G93A-UeGFP (vehicle) vs. hSOD1G93A-UeGFP (NU-9 100 mg/kg/day), P67, Tukey's multiple comparisons test): 1.167
Mean Diff. of weight, vehicle vs. NU-9 (Weight of the mice; hSOD1G93A-UeGFP (vehicle) vs. hSOD1G93A-UeGFP (NU-9 100 mg/kg/day), P74, Tukey's multiple comparisons test): 0.2222
Mean Diff. of weight, vehicle vs. NU-9 (Weight of the mice; hSOD1G93A-UeGFP (vehicle) vs. hSOD1G93A-UeGFP (NU-9 100 mg/kg/day), P81, Tukey's multiple comparisons test): 0.7222
Mean Diff. of weight, vehicle vs. NU-9 (Weight of the mice; hSOD1G93A-UeGFP (vehicle) vs. hSOD1G93A-UeGFP (NU-9 100 mg/kg/day), P88, Tukey's multiple comparisons test): 0.1111
Mean Diff. of weight, vehicle vs. NU-9 (Weight of the mice; hSOD1G93A-UeGFP (vehicle) vs. hSOD1G93A-UeGFP (NU-9 100 mg/kg/day), P95, Tukey's multiple comparisons test): 0.1111
Mean Diff. of weight, vehicle vs. NU-9 (Weight of the mice; hSOD1G93A-UeGFP (vehicle) vs. hSOD1G93A-UeGFP (NU-9 100 mg/kg/day), P102, Tukey's multiple comparisons test): 0
Mean Diff. of weight, vehicle vs. NU-9 (Weight of the mice; hSOD1G93A-UeGFP (vehicle) vs. hSOD1G93A-UeGFP (NU-9 100 mg/kg/day), P109, Tukey's multiple comparisons test): 0.5556
Mean Diff. of weight, vehicle vs. NU-9 (Weight of the mice; hSOD1G93A-UeGFP (vehicle) vs. hSOD1G93A-UeGFP (NU-9 100 mg/kg/day), P116, Tukey's multiple comparisons test): 0.1111
Mean weight (Mean 2) (Weight of the mice; NU-9 20 mg/kg/day, P60): 17
Mean weight (Mean 2) (Weight of the mice; NU-9 20 mg/kg/day, P67): 16.86
Mean weight (Mean 2) (Weight of the mice; NU-9 20 mg/kg/day, P74): 16.43
Mean weight (Mean 2) (Weight of the mice; NU-9 20 mg/kg/day, P81): 16.57
Mean weight (Mean 2) (Weight of the mice; NU-9 20 mg/kg/day, P88): 16.71
Mean weight (Mean 2) (Weight of the mice; NU-9 20 mg/kg/day, P95): 16.57
Mean weight (Mean 2) (Weight of the mice; NU-9 100 mg/kg/day, P60): 16.44
Mean weight (Mean 2) (Weight of the mice; NU-9 100 mg/kg/day, P67): 16.33
Mean weight (Mean 2) (Weight of the mice; NU-9 100 mg/kg/day, P74): 16.44
Mean weight (Mean 2) (Weight of the mice; NU-9 100 mg/kg/day, P81): 16.44
Mean weight (Mean 2) (Weight of the mice; NU-9 100 mg/kg/day, P88): 16.89
Mean weight (Mean 2) (Weight of the mice; NU-9 100 mg/kg/day, P95): 17.22
Weight, Average (Weight of the mice; NU-9 20 mg/kg/day po, P60): 17 g
Weight, Average (Weight of the mice; NU-9 20 mg/kg/day po, P67): 16.8571 g
Weight, Average (Weight of the mice; NU-9 20 mg/kg/day po, P74): 16.4286 g
Weight, Average (Weight of the mice; NU-9 20 mg/kg/day po, P81): 16.5714 g
Weight, Average (Weight of the mice; NU-9 20 mg/kg/day po, P88): 16.7143 g
Weight, Average (Weight of the mice; NU-9 20 mg/kg/day po, P95): 16.5714 g
Weight, Average (Weight of the mice; NU-9 20 mg/kg/day po, P102): 16.4286 g
Weight, Average (Weight of the mice; NU-9 20 mg/kg/day po, P109): 16.8571 g
Weight, Average (Weight of the mice; NU-9 20 mg/kg/day po, P116): 17.1429 g
Weight, Average (Weight of the mice; NU-9 100 mg/kg/day po, P60): 16.4444 g
Weight, Average (Weight of the mice; NU-9 100 mg/kg/day po, P67): 16.3333 g
Weight, Average (Weight of the mice; NU-9 100 mg/kg/day po, P74): 16.4444 g
Weight, Average (Weight of the mice; NU-9 100 mg/kg/day po, P81): 16.4444 g
Weight, Average (Weight of the mice; NU-9 100 mg/kg/day po, P88): 16.8889 g
Weight, Average (Weight of the mice; NU-9 100 mg/kg/day po, P95): 17.2222 g
Weight, Average (Weight of the mice; NU-9 100 mg/kg/day po, P102): 17 g
Weight, Average (Weight of the mice; NU-9 100 mg/kg/day po, P109): 16.7778 g
Weight, Average (Weight of the mice; NU-9 100 mg/kg/day po, P116): 16.8889 g
CYP inhibition (cytochrome P450s; 5 CYPs, at 3 µM): 5 CYPs; <10% at 3 µM
inhibition of cytochrome P450s (cytochrome P450s): little inhibition
Brain penetration [1]: 8 µM and 8.3 µM
blood brain barrier crossing [1]: crossed the blood brain barrier
t 1/2 ([1]; in vivo, mice): 2.7 h and 2.73 h
Blood levels (t max) ([1]; ip, mice, dose 500 mg/kg): 12 h (500 mg/kg)
Oral bioavailability ([1]; mice): 94%
CL (mouse) ([1]; mouse): 44 mL/min/kg
AUC ([1]; po): 3452 h‐ng/ml po
MTD (mice; ip): 1280 mg/kg
NOAEL (mice; po, 7‐day repeat toxicology study): 100 mg/kg
